Legend:
[1] = target: T1, hAChE (human acetylcholinesterase) (Homo sapiens, UniProt P22303); experiment: enzyme inhibition assay; assay type: biochemical
physchem = conditions: pbs
[2] = target: T1, hAChE (human acetylcholinesterase); experiment: enzyme inhibition assay; assay type: biochemical; conditions: footnote d not shown: inhibition or residual activity and concentration unknown
[3] = target: T1, hAChE (human acetylcholinesterase); experiment: biochemical

T1 sequence (P22303 32-614): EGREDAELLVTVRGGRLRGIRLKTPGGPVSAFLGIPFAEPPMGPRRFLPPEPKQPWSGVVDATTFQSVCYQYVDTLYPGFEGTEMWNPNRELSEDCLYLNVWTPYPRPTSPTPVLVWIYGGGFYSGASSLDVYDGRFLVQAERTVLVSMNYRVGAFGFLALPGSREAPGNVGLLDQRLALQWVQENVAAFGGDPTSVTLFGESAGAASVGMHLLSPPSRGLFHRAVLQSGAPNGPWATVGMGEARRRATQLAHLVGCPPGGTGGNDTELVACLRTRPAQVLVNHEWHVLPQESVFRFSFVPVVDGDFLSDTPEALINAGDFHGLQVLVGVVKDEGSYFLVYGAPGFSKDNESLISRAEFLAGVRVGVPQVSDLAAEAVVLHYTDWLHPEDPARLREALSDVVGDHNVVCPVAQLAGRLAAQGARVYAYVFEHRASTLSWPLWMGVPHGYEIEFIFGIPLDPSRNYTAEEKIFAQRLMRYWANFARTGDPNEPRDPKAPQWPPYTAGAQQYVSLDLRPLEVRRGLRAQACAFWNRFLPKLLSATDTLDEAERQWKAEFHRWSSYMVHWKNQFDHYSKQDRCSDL

Row | SMILES | IC50 [1] [µM] | other results
1 | CN(CCC1CCCCCC1)Cc1c[nH]c2c(SC(=O)N(C)C)cccc12 [compound 2] | 11.1 | –
2 | CN(CCC1CCCCCC1)Cc1c[nH]c2c([Se]C(=O)N(C)C)cccc12 [compound 3] | 9.75 | –
3 | CN(CCC1CCCCCC1)Cc1c[nH]c2c([Te]C(=O)N(C)C)cccc12 [compound 4] | 13.2 | –
4 | CN(CCC1CCCCCC1)Cc1c[nH]c2c(N(C)C(=O)F)cccc12 [compound 6] | 0.177 ± 0.006 | half-life (physchem): ~4 days
5 | CN(CCC1CCCCCC1)Cc1c[nH]c2c(N(C)C(=O)OCC(F)(F)F)cccc12 [compound 7] | – | % (footnote d) [2]: 51.6 ± 0.8%
6 | CN(CCC1CCCCCC1)Cc1c[nH]c2c(N(C)C(=O)OC(C(F)(F)F)C(F)(F)F)cccc12 [compound 8] | 25.8 | –
7 | CN(CCC1CCCCCC1)Cc1c[nH]c2c(N(C)C(=O)OC(C(F)(F)F)(C(F)(F)F)C(F)(F)F)cccc12 [compound 9] | 6.7 | –
8 | CN(CCC1CCCCCC1)Cc1c[nH]c2c(N(C)C(=O)Oc3ccccc3)cccc12 [compound 10] | 21.2 | –
9 | CN(CCC1CCCCCC1)Cc1c[nH]c2c(N(C)C(=O)Oc3c(F)c(F)c(F)c(F)c3F)cccc12 [compound 11] | 0.788 ± 0.176 | –
10 | CN(CCC1CCCCCC1)Cc1c[nH]c2c(N(C)C(=O)On3ccnc3)cccc12 [compound 14] | 24.2 | half-life (physchem): ~18 days
11 | CN(CCC1CCCCCC1)Cc1c[nH]c2c(N(C)C(=O)Sc3nncn3C)cccc12 [compound 22] | 21.8 | half-life (physchem): ~25 days
12 | CN(CCC1CCCCCC1)Cc1c[nH]c2c(N(C)C(=O)Sc3nnnn3C)cccc12 [compound 23] | 16.9 | half-life (physchem): ~38 days
13 | CC[Se]C(=O)N(C)c1cccc2c(CN(C)CCC3CCCCCC3)c[nH]c12 [compound 24] | 30.2 | –
14 | CN(CCC1CCCCCC1)Cc1c[nH]c2c(N(C)C(=O)[Se]c3ccccc3)cccc12 [compound 25] | – | % (footnote d) [2]: 53.6 ± 2.7%
15 | CN(CCC1CCCCCC1)Cc1c[nH]c2c(N(C)C(=O)n3ccnc3)cccc12 [compound 26] | 47.3 | half-life (physchem): ~14 days
16 | CN(CCC1CCCCCC1)Cc1c[nH]c2c(N(C)C(=O)n3cnc([N+](=O)[O-])c3)cccc12 [compound 27] | 15.9 | –
17 | CN(CCC1CCCCCC1)Cc1c[nH]c2c(NC(=O)n3ccnc3)cccc12 [compound 33, N-(3-(((2-Cycloheptylethyl)(methyl)amino)methyl)-1H-indol-7-yl)-1H-imidazole-1-carboxamide] | – | IC50 [3]: 17.3 µM

— doi:10.1101/2025.08.20.671340v1 (biorxiv, 2025)
